Data: patent US20250082625A1, “NOVEL THERAPY” (priority 2016, published 2025)
Entries after “also recorded” stand apart in the source; their conditions may differ.

How the values were obtained:
[1] = system: differentiated SH-SY5Y cells; assay: Pre-treatment of differentiated SH-SY5Y nerve cells before CY17 infection (confocal imaging, ELISA); assay type: cell-based, human
Method: (§1) Cells were grown on 8-well chamber slides (6×10^4 cells/well, Thermo Fischer Scientific) or in 6-well plates (6×10^5 cells/well) for 16 hours in media supplemented with 10% FBS. Media were removed, and cells were washed with PBS before adding medium without FBS. Cells were infected with bacteria diluted to appropriate concentration in PBS and incubated for one or four hours at 37° C. with 5% CO2.
(§2) The two cell types were first infected with increasing concentrations of the acute cystitis strain E. coli CY-17 (10^2-10^4 cfu/ml) for 1 to 4 hours. NK1R and SP expression was used as a read out of the cellular response. […] A concentration of 10^4 cfu/ml of CY-17 and four hours of infection was chosen for further studies. Under these conditions, there was little cytotoxicity. To further characterize the neuropeptide response to bladder infection, the in vitro analysis was extended to include GALR2, OrxR2 and TAS2R43. Confocal microscopy was used in this instance. Infected cells were fixed (3.7% formaldehyde, 15 min), permeabilized (0.25% triton X-100, 5% FBS, 10 min), blocked (5% FBS, 1 h at RT), incubated overnight with primary antibodies in 5% FBS: Anti-NK1R (1:100, SC-15323, Santa Cruz), anti-SP, (1:200, ORB11399, Biorbyt), anti-orexin receptor 2, (1:200, AB10470, Abcam), anti-TAS2R43, (1:200, AB65513, Abcam), and anti-GALR2 antibodies (1:100, AB136264, Abcam). Appropriate fluorescently labeled secondary antibodies were used (Alexa Fluor® 488 goat anti-rabbit IgG, A-11034; Life Technologies, (1 hour at Room Temperature). After nuclear staining (DRAQ5, 1:1000, Abcam) slides were mounted (Fluoromount, Sigma-Aldrich), imaged by laser scanning confocal microscopy (MSM510 META confocal microscope, Carl Zeiss) and quantified by ImageJ software 1.46r (NIH).
(§3) HTB-9 cells and differentiated SH-SY5Y cells were pre-treated with SR140333, or IL-1RA Anakinra (500 ng/ml) for 30 minutes before infection with CY17 (10^4 cfu/ml, four hours), or treatment with exogenous recombinant SP (R&D System) or IL-1β (Abnova) (20 ng/ml, four hours). After infection, cells were infected with CY17 and the NK1R, SP and IL-1β response was quantified by confocal imaging. IL-1β- and SP secretion was quantified by ELISA, in culture supernatants. In nerve- and bladder epithelial cells, SR140333 inhibited the SP/NK1R response to infection, consistent with an autocrine activation loop involving SP/NK1R as shown by confocal imaging (FIG. 10a). […] SP activated IL-1β expression and secretion in bladder epithelial cells but had no effect on IL-1β on nerve cells. (*=P<0.05, **=P<0.01, ***=P<0.001, Two-tailed t-test for confocal imaging data and Mann-Whitney U-test for ELISAs.
Furthermore, to examine if the effects of NK1R inhibition can be generalized, we used two additional NK1R antagonists (CP99994 and L703.303). […]

HTB-9 cells = assay: Pre-treatment of HTB-9 bladder epithelial cells before CY17 infection (confocal imaging, ELISA); assay type: cell-based, human
Method: as §1, §2, §3
Furthermore, to examine if the effects of NK1R inhibition can be generalized, we used two additional NK1R antagonists (CP99994 and L703.303). HTB-9 cells and differentiated SH-SY5Y cells were pre-treated with SR140333, CP99994, L-703.606 or IL-1RA Anakinra (500 ng/ml) for 30 minutes before infection with CY17 (10^4 cfu/ml, four hours), or treatment with exogenous recombinant SP (R&D System) or IL-1β (Abnova) (20 ng/ml, four hours).

[2] = system: Nlrp3^−/− mice infected with CY-17; assay: Disease severity / bladder pathology in CY-17 infected Nlrp3^−/− mice (murine acute cystitis model); assay type: in vivo
Method: To inhibit the NK1R dependent response to infection, we used the NK1R antagonist SR 140333. FIG. 6a Experimental scheme of NK1R antagonist (SR140333) treatment. Susceptible Nlrp3^−/− mice were infected with CY-17 for 24 hours, and the neuropeptide response and disease severity was compared between untreated infected mice, treated and infected mice and sham treated uninfected mice. The mice were either pre-treated with SR140333 i.p. for 30 minutes prior to infection or treated i.p. 1 hour after infection. Sham treated mice received SR140333 i.p. and PBS intravesically. n=10 mice in each treatment group, n=6 in the sham treated, uninfected group. N=2 in the uninfected control group. Means+SEMs of 2 experiments, total number of mice=39. FIG. 6b Protection against gross bladder pathology in SR140333 treated mice compared untreated, infected mice, FIG. 6c Inhibition of NK1R staining in treated mice compared to infected mice not receiving SR140333. Sections were obtained from 4 mice per condition. FIG. 6d Inhibition of Nk1r expression, detected by qRT-PCR analysis of treated mice compared to untreated, infected mice. Sections were obtained from 5 mice per treatment group. FIG. 6e Attenuated SP staining in SR140333 treated infected mice compared to untreated mice (n=4 mice per condition). […] FIG. 6h Galr2 gene expression is not altered after treatment with SR140333. n=5 mice per treatment group (*=p<0.05, **=p<0.01, Mann-Whitney test). FIG. 6i Protection from bladder tissue pathology shown in H&E stained and neutrophil and bacterial immunostained sections from treated versus control mice. […] (n=10 mice per treatment group, n=4 mice per sham group, means+SEMs, *P<0.05, **P<0.01, ***P<0.001, one way Anova).
Susceptible Nlrp3^−/− mice were treated with SR140333 intra-peritoneally (1 mg/kg), one hour before infection (pretreatment) or 30 minutes after infection (post-treatment) with CY-17 (FIG. 6a). The severity of acute cystitis after 24 hours or seven days was examined and neuropeptide expression and disease severity quantified by immunohistochemistry and qRT-PCR of whole bladder RNA extracts, using primers specific for NK1R, Ppt-1 or Galr2 as described above.
Bladder tissue was more intact and the inflammatory cell infiltrate was reduced in tissues.

[3] = pre-treated 30 minutes before CY17 (10^4 cfu/ml, four hours)
[4] = pre-treated before CY17 infection

With `CC(C)Oc1cccc(CC(=O)N2CCC[C@](CC[N+]34CCC(c5ccccc5)(CC3)CC4)(c3ccc(Cl)c(Cl)c3)C2)c1.[Cl-]` [SR140333, 1-[2-[(3S)-3-(3,4-Dichlorophenyl)-1-[2-[3-(1-methylethoxy)phenyl]acetyl]-3-piperidinyl]ethyl]-4-phenyl-1-azoniabicyclo[2.2.2]octane chloride] the “SP/NK1R response to infection (confocal imaging)” value [1, 3] was “inhibited”, the “SP secretion (ELISA, culture supernatants)” value [1, 4] was “decrease” and the “SP/NK1R response to infection (confocal imaging)” value (HTB-9 cells; [3]) was “inhibited”. For the same molecule, the “IL-1β secretion (ELISA, culture supernatants)” value (HTB-9 cells; [4]) was “inhibited; also recorded: decreased”, the “SP secretion (ELISA, culture supernatants)” value (HTB-9 cells; [4]) was “decreased” and the “gross bladder pathology (edema, hyperemia and bladder enlargement)” value ([2]; 24 hours post infection, vs infected mice without therapy) was “reduction; also recorded: Protection”. The Histology score ([2]; after treatment with SR140333) was “reduced pathology”, the “inflammatory cell infiltrate in tissues” value ([2]; treated Nlrp3^−/− mice vs infected mice without therapy) was “reduced” and the “bladder tissue pathology / tissue integrity (H&E, neutrophil and bacterial immunostained sections)” value ([2]; treated versus control mice) was “more intact; also recorded: Protection”.
